Laboratory results reported in publication PMC9924091 (Journal of Medicinal Chemistry, 2023).
Where two headings read alike, the source gives them in different places.

Columns and labels:
[1] = tested on: SARS-CoV-2 virus (Victoria strain) in VeroE6 cells; assay: microbe, parasite or virus in culture; type: cell-based
[2] = molecular target: T1, SARS-CoV-2 PL^pro (Severe acute respiratory syndrome coronavirus 2, UniProt P0DTD1); assay: SPE-MS SARS-CoV-2 PL^pro inhibition assay; type: biochemical
T1 construct: PL^pro papain-like protease

[3] = molecular target: T2, SARS-CoV-2 M^pro (Severe acute respiratory syndrome coronavirus 2, UniProt P0DTD1); type: biochemical; design: M^pro main protease; made in house
[4] = molecular target: T2, SARS-CoV-2 M^pro; settings: M^pro 2.0 μM, inhibitor 10 μM, 20 mM HEPES pH 7.5, 90 min, ambient temperature

Row | SMILES | inhibition of SARS-CoV-2 PL^pro (in words) [2] | inhibition of SARS-CoV-2 progression in infected VeroE6 cells (in words) [1] | also measured
1 | CSCC[C@@H](C#N)NC(=O)[C@@H]1[C@@H]2[C@H](CN1C(=O)[C@@H](NC(=O)C(F)(F)F)C(C)(C)C)C2(C)C [Compound 15] | None of the tested M^pro inhibitors inhibited SARS-CoV-2 PL^pro | – | fold less efficient inhibition of SARS-CoV-2 progression in infected VeroE6 cells than nirmatrelvir (1) [1]: ~5 fold; EC50 ([1]; Severe acute respiratory syndrome coronavirus 2, Vero C1008): ~11.8 µM; IC50 ([2]; isolated recombinant SARS-CoV-2 PL^pro, SPE-MS, n = 2, mean ± SD): > 100 µM; IC50 [3]: 0.89 ± 0.17 µM; fold less efficient inhibition of isolated M^pro (higher IC50) than alkyne 13 [3]: ~6 fold
2 | CC1(C)[C@@H]2[C@@H](C(=O)N[C@H](C#N)C[C@@H]3CCNC3=O)N(C(=O)COc3ccc(C(F)(F)F)cc3)C[C@@H]21 [Compound 21] | None of the tested M^pro inhibitors inhibited SARS-CoV-2 PL^pro | – | –
3 | CC(C)(C)[C@H](NC(=O)C(F)(F)F)C(=O)N1C[C@H]2[C@@H]([C@H]1C(=O)N[C@H](C#CC(F)(F)F)C[C@@H]1CCNC1=O)C2(C)C [Compound 28] | None of the tested M^pro inhibitors inhibited SARS-CoV-2 PL^pro | – | –
4 | CC(C)(C)[C@H](NC(=O)C(F)(F)F)C(=O)N1C[C@H]2[C@@H]([C@H]1C(=O)N[C@H](C#Cc1ccc([N+](=O)[O-])cc1)C[C@@H]1CCNC1=O)C2(C)C [Compound 27b] | None of the tested M^pro inhibitors inhibited SARS-CoV-2 PL^pro | – | –
5 | C#C[C@H](C[C@@H]1CCNC1=O)NC(=O)[C@H](CC(C)C)NC(=O)OCc1ccccc1 [Compound 23] | None of the tested M^pro inhibitors inhibited SARS-CoV-2 PL^pro | did not show any inhibitory activity over the tested concentration range | –
6 | C#C[C@H](C[C@@H]1CCNC1=O)NC(=O)[C@@H]1[C@@H]2[C@H](CN1C(=O)COc1ccc(C(F)(F)F)cc1)C2(C)C [Compound 19] | None of the tested M^pro inhibitors inhibited SARS-CoV-2 PL^pro | did not show any inhibitory activity over the tested concentration range | –
7 | CC1(C)[C@@H]2[C@@H](C(=O)N[C@H](C#N)C[C@@H]3CCNC3=O)N(C(=O)COc3ccc(OC(F)(F)F)cc3)C[C@@H]21 [Compound 20] | None of the tested M^pro inhibitors inhibited SARS-CoV-2 PL^pro | – | –
8 | CC(C)(C)[C@H](NC(=O)C(F)(F)F)C(=O)N1C[C@H]2[C@@H]([C@H]1C(=O)N[C@H](C#Cc1ccccc1)C[C@@H]1CCNC1=O)C2(C)C [Compound 27a] | – | – | inhibition of SARS-CoV-2 PL^pro (in words) ([2]; SPE-MS PL^pro inhibition assay): None of the tested M^pro inhibitors inhibited SARS-CoV-2 PL^pro; covalent reaction with M^pro by protein-observed SPE-MS (in words) [4]: reacts covalently
9 | C#C[C@H](CCSC)NC(=O)[C@@H]1[C@@H]2[C@H](CN1C(=O)[C@@H](NC(=O)C(F)(F)F)C(C)(C)C)C2(C)C [Compound 14] | None of the tested M^pro inhibitors inhibited SARS-CoV-2 PL^pro | – | –
10 | C#C[C@H](C[C@@H]1CCNC1=O)NC(=O)[C@@H]1[C@@H]2[C@H](CN1C(=O)COc1ccc(OC(F)(F)F)cc1)C2(C)C [Compound 18] | None of the tested M^pro inhibitors inhibited SARS-CoV-2 PL^pro | did not show any inhibitory activity over the tested concentration range | –
